This note sets out measurements from PubChem BioAssay (NCI).

Values joined by “and” are separate entries in the source; they are usually repeats but may differ in a detail not shown here. Equal values may be shown once.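 All cell lines were grown in 96-well plates and treated with compound for 48 hours. Abbreviation: GI50, concentration required for 50% inhibition of growth. TGI denotes the concentration required for complete inhibition of growth.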

Some test systems named below: SNB-78 CNS; DLD-1 colon; SK-MEL-28 melanoma; MDA-MB-231 breast; SN12C renal; SNB-19 CNS; CCRF-CEM leukemia; M19-MEL melanoma; 786-0 renal; K-562 leukemia.
Assay in all cases: inhibition of tumour cell growth, NCI panel, 48 h

Turning to `CCC/C(=N\NC(=S)N1CCN(c2ccccn2)CC1)c1ccccn1`, the GI50 is 1.08 µM in the test with SNB-78 CNS; 0.339 µM with SN12C renal; under 0.001 µM in the test with CCRF-CEM leukemia; 0.0534 µM in the test with M19-MEL melanoma; 0.0284 µM with 786-0 renal. Besides, the TGI with SNB-78 CNS is > 10 µM and 4.24 µM; with DLD-1 colon it was 1.33 µM and 1.34 µM; with SK-MEL-28 melanoma it was > 10 µM and 1.47 µM; in the test on MDA-MB-231 breast, 1.91 µM; in the test with SN12C renal, 1.94 µM and 1.46 µM; with SNB-19 CNS, > 4.24 µM and 1.7 µM. Also, the TGI in the test with CCRF-CEM leukemia was 0.0216 µM and 0.0281 µM; with M19-MEL melanoma, 1.32 µM and 1.74 µM; in the test on 786-0 renal, 1.82 µM and 1.94 µM; with K-562 leukemia, 0.11 µM.
In the case of `CN(C)CCCCN1CCc2c(n(C)c3ccccc23)C1=O`, the TGI with SNB-78 CNS is over 100 µM; in the test with DLD-1 colon, over 100 µM; in the test on SK-MEL-28 melanoma, 39.7 µM and 31.4 µM; with MDA-MB-231 breast, > 63.2 µM and 61.9 µM; in the test on SN12C renal, > 90.1 µM and 98 µM; with SNB-19 CNS it was over 100 µM. In addition, the TGI with CCRF-CEM leukemia was over 100 µM; with M19-MEL melanoma, 69.6 µM; in the test on 786-0 renal, > 79.7 µM and 49.4 µM; with K-562 leukemia, 51.9 µM and > 59.4 µM.
Consider `CCN1C(=O)C/C(=C\C(C)=O)Nc2ccccc21`, for which the TGI in the test with SNB-78 CNS is over 100 µM; in the test with DLD-1 colon, 44.7 µM; with SK-MEL-28 melanoma, over 100 µM; in the test with MDA-MB-231 breast it was over 100 µM; with SNB-19 CNS, over 100 µM; in the test on CCRF-CEM leukemia, over 100 µM. In addition, the TGI with M19-MEL melanoma, in the test with 786-0 renal and with K-562 leukemia was over 100 µM throughout. Also, the GI50 in the test with MDA-MB-231 breast is over 100 µM.
Turning to `Cn1ncc(=S)[nH]c1=S`, the TGI with SNB-78 CNS, in the test on DLD-1 colon, in the test with SK-MEL-28 melanoma, in the test on SN12C renal, in the test on SNB-19 CNS and in the test with CCRF-CEM leukemia was over 100 µM throughout. Also, the TGI in the test with M19-MEL melanoma, in the test with 786-0 renal and in the test with K-562 leukemia was over 100 µM each time.
With `CCCN1C(=O)C/C(=C\C(C)=O)Nc2ccccc21`, the TGI with SNB-78 CNS, with DLD-1 colon, in the test on SK-MEL-28 melanoma, in the test with SN12C renal, in the test with SNB-19 CNS and in the test with CCRF-CEM leukemia was over 100 µM throughout. Moreover, the TGI in the test on M19-MEL melanoma, with 786-0 renal and with K-562 leukemia was over 100 µM in each case.
